# Results as given in patent US20180133327A1, “Cell Penetrating Peptides and Complexes Comprising the Same” (Amal Therapeutics SA, priority 2015, published 2018).
# Columns and labels:
# [1] = tested on: OVA323-339-specific CD4+ T cells from OT-2 T cell TCR transgenic mice; test: In vitro epitope presentation assay, MHC class II (BMDCs, proliferation of OT-2 T cells); assay type: cell-based, mouse; conditions: for in vitro proliferation of CD4 T cells (MHC class II presentation): BMDCs loaded 4 h with 300 nM ZxxOVACD8CD4, LPS o.n., 4 days
# Procedure: (§1) BMDCs were loaded 4 h with 300nM of the different Zebra CPP truncation conjugated to both ovalbumin CD8 and CD4 epitopes (Z13OVACD8CD4, Z15OVACD8CD4 and Z18OVACD8CD4), then washed and incubated o.n. with 100 ng/ml of LPS. Efficient MHC class I or class II-restricted presentation was monitored after 4 days with CFSE-labeled naïve OVA257-264-specific CD8^+T cells from OT-1 T cell receptor (TCR) transgenic mice OT1 cells (A) or CFSE-labeled naïve OVA323-339-specific CD^+T cells from OT-2 T cell TCR transgenic mice respectively. As positive control, BMDCs were pulsed for 1 h with 5 uM peptide. Data from one experiment representative of three independent experiments.
# (§2) In order to assess the capacity of the ZEBRA CPP truncations to stimulate an integrated immune response including CD4 T cells, antigenic cargoes were produced that included both CD8 and CD4 T cell epitopes from OVA, and conjugated to Z13, Z15 and Z18. Accordingly, the following constructs (Z13OVACD8CD4, Z15OVACD8CD4 and Z18OVACD8CD4) were synthesized:
# (§3) Processing and presentation of the CD8 and CD4 T cell epitopes were monitored, as described in Example 2 for CD8 T cell epitopes, by measuring the in vitro proliferation of naïve OT-1 T cells (CD8 T cell epitopes; FIG. 4A) and OVA323-339-specific CD4^+ T cells from OT-2 T cell TCR transgenic mice, respectively (FIG. 4B). Briefly, OT-2 T cell TCR transgenic mice express TCR specific for MHC class II restricted OVA323-339.
# [2] = tested on: EG7-OVA tumor cells; test: Therapeutic effect of ZEBRA CPP truncation-based vaccines in the EG.7-OVA s.c. model; assay type: in vivo, C57BL/6 mice; conditions: 10 nmol ZxxOVACD8CD4 and 20 μg MPLA s.c. at d5, d13 and d21 after tumor implantation
# Procedure: C57BL/6 mice were implanted s.c. with 3×10^5 EG7-OVA tumor cells in the left flank and vaccinated three times (d5, d13 and d21) by s.c. injection of 10nmoles of Z-truncOVACD8CD4 peptides and 20 μg of MPLA in the right flank. Tumor size was measured with a caliper. […] B, D and F: survival curve of 7 mice per group. Median survival is indicated on the graph (m.s.). *, p<0.05; **, p<0.01; ***, p<0.001; ****, p<0.0001 (Log-Rang test).
# To investigate the effects of different ZEBRA CPP truncation-based vaccines on tumor growth and survival, the effects of the constructs Z13OVACD8CD4, Z14OVACD8CD4, Z15OVACD8CD4 and Z18OVACD8CD4 (as described in Examples 4 and 6) were investigated in the EG.7-OVA s.c. model. On d0, C57BL/6 mice were implanted s.c. with 3×10^5 EG7-OVA tumor cells in the left flank and assigned to five different groups (control, Z13OVACD8CD4, Z14OVACD8CD4, Z15OVACD8CD4 and Z18OVACD8CD4). Mice were vaccinated three times (namely, at d5, d13 and d21 after tumor implantation) by s.c. injection of either 10 nmol of Z13OVACD8CD4, Z14OVACD8CD4, Z15OVACD8CD4 or Z18OVACD8CD4 and 20μg of MPLA in the right flank. Tumor size was measured with a caliper.
# [3] = tested on: CFSE-labeled naïve OVA257-264-specific CD8+ T cells from OT-1 TCR transgenic mice; test: In vitro epitope presentation assay, MHC class I (BMDCs, proliferation of OT-1 T cells); assay type: cell-based, mouse; conditions: for in vitro proliferation of CD8 T cells (MHC class I presentation): BMDCs loaded 4 h with 300 nM ZxxOVACD8CD4, LPS o.n., 4 days
# Procedure: as §1
# (§4) BMDCs were loaded with 0.3 μM of each Zebra CPP truncation (Z13 to Z20) conjugated to OVACD8 epitope as described above for 4 hours at 37° C., washed 3 times, then matured overnight at 37° C. with 100 ng/ml LPS (from Salmonella abortus, equi S-form, Enzo Life Sciences). Antigen-loaded mature BMDC were then mixed at a ratio of 1:10 with OT-1 T cell receptor (TCR) transgenic mice splenocytes that had been stained with 10 μM 5-(and 6) Carboxyfluorescein diacetate succinimidyl ester (CFSE) (Life Technologies). After 4 days co-incubation of spleen cells and BMDCs, antigen-specific proliferation was assessed by flow cytometry, measuring CFSE dilution on CD8 T cells and live-gated cells. OT-1 mice express TCR specific for MHC class I restricted OVA257-264.
# as §2, §3
# [4] = tested on: OVA257-264-specific CD8+ T cells from OT-1 T cell receptor (TCR) transgenic mice; test: Identification of the best ZEBRA CPP truncations in vitro (proliferation assay) and in vivo (CD8 T cell immune response after vaccination); assay type: cell-based, mouse (C57BL/6; conditions: each CPP truncation conjugated to OVACD8 epitope; in vitro BMDCs loaded with 0.3 μM, 4 days with OT-1 cells; in vivo 10 nmol s.c. wk0 and wk2 with anti-CD40 and Hiltonol
# From the text: The functionality of the different ZEBRA CPP truncations was validated both in vitro and in vivo, based on the capacity to stimulate MHC class-I restricted CD8 T cells specific for a model antigen OVA (OVA257-264-specific CD8^+ T cells from OT-1 T cell receptor (TCR) transgenic mice). This capacity should reflect transport of the OVA antigen cargo into APCs. The functional read-out of these experiments was proliferation of OVA-specific CD8 T cells in vitro (FIG. 2A), and for the in vivo studies, the induction of OVA-specific CD8 T cells in the blood of mice vaccinated with the different CPP-OVA conjugates together with adjuvant (FIG. 2B).
# To assess the proliferation of OVA-specific CD8 T cells in vitro, bone marrow derived dendritic cells (BMDCs) were prepared from C57BL/6 mice as previously described (Santiago-Raber (2003), J. Exp. Med. 197, 777-788), and used at day 9-10 of culture.
# as §4
# To assess the induction of OVA-specific CD8 T cells in vivo, C57/BL6 mice were assigned to nine different groups (Z12 to Z20, respectively). Each group of mice was vaccinated by subcutaneous injection of 10 nmol of one selected Zebra CPP truncation (one selected from Z12 to Z20) conjugated to OVACD8 epitope as described above with 100 μg of anti-CD40 at week0 and week2. Mice were also injected with 50 μg of Hiltonol i.m. (right hind leg). Mice were bled 1 wk after the 2nd vaccination in order to assess OVA257-264-specific CD8 T cells.
# [5] = ZxxOVACD8CD4, 300 nM, compared with Z13 or Z15
Sequence,in vitro proliferation of CD4 T cells (MHC class II presentation) [1],survival time [2],tumor volume [2],in vitro proliferation of CD8 T cells (MHC class I presentation) [3],promoting cross-presentation (stimulation of OVA-specific CD8 T cells) [4],"efficiency of DC transduction and cargo delivery into the MHC class II antigen processing pathway [1, 5]","efficiency of DC transduction and cargo delivery into the MHC class I antigen processing pathway [3, 5]"
KRYKNRVASRKSRAKFK (CPP Z15) [ZEBRA CPP truncation],proliferation of both CD8 and CD4 T cells occurred,only slight,only slight,proliferation of both CD8 and CD4 T cells occurred,best truncations for promoting cross-presentation,–,–
KRYKNRVASRKSRAKFKQLLQHYREVAAAK [Z14],–,much more pronounced and highly significant,much more pronounced and highly significant,–,best truncations for promoting cross-presentation,–,–
KRYKNRVASRKSRAKFKQLLQHYREVAAAKSSENDRLRLLLK [Z13],proliferation of both CD8 and CD4 T cells occurred,much more pronounced and highly significant,much more pronounced and highly significant,proliferation of both CD8 and CD4 T cells occurred,best truncations for promoting cross-presentation,–,–
REVAAAKSSENDRLRLLLK [Z18],proliferation of both CD8 and CD4 T cells occurred,only slight,only slight,proliferation of both CD8 and CD4 T cells occurred,best truncations for promoting cross-presentation,less efficient,less efficient
